Reference: patent publication US20040132666A1, “Administration of free radical scavengers to prevent or treat ischemia-reperfusion injuries” (Oregon Health & Science University, priority 2002, published 2004)

How the values were obtained:
[1] = test system: middle cerebral artery occlusion; experiment: Temporary (60 min) middle cerebral artery occlusion and 24 h reperfusion, total infarction volume by TTC staining (Example 2); format: in vivo, rat; conditions: for infarction volume: 60 min occlusion, 24 h reperfusion, mean ± SD
brain glutathione levels = conditions: 10 g/m^2 intraperitoneally twice daily for 3 days; cited from earlier work
[2] = test system: middle cerebral artery occlusion (MCAO); experiment: 60 minute transient MCAO in rats, infarcted area on TTC stained brain slices (Example 1); format: in vivo, rat
Experimental: Twenty female Long Evans rats underwent 60 minute transient MCAO. The rats were anesthetized, intubated and mechanically ventilated using 2% Isoflurane, available from Abbott Laboratories, North Chicago, Ill., and oxygen mixture. The left common carotid artery (CCA) and the bifurcation were exposed via midline incision. The branches of the left external carotid artery (ECA) were coagulated, and the ECA stump was mobilized inferiorly, the left pterygopalatine artery was ligated. A blunt tipped 3 cm long segment of a 3-0 monofilament nylon suture, available from Dermalone, United States Surgical, Norwalk, Conn., was introduced into the left internal carotid artery via the left ECA stump, and advanced 2.0-2.2 cm distance from the bifurcation. Then the proximal CCA was ligated temporarily. After the defined occlusion time the animal was re-anesthetized using a mask. The ligation of the CCA was released, and the suture was pulled back and removed allowing reperfusion of the occluded segment. […] The animals were sacrificed 24 h later with intracardiac injection of Pentobarbital. […] The pictures were analyzed using the Scion Image for Windows software (based on NIH Image Software for Macintosh). The non-stained area was outlined, and the area was calculated, as a percentage of the stroked hemisphere. Data were analyzed and graphed using Microsoft Excel Software. […]

[3] = Serum NAC concentration in rats 5 min post infusion
[4] = test system: ischemia-reperfusion injuries; experiment: Single high dose versus multiple low doses of NAC against ischemia-reperfusion injuries; conditions: single high dose (400-1000 mg/kg) versus multiple low doses
[5] = rat, in vivo, iv, 1000 mg/kg

CCCCS(=N)(=O)CCC(N)C(=O)O [BSO, L-buthionine-[S,R]-sulfoxamine]
infarction volume in comparison to other groups ([1]; 3 days of BSO pretreatment): did not result in higher infarction volume
reduction of brain glutathione levels (brain glutathione levels): at least 50%

CC(=O)N[C@@H](CS)C(=O)O [NAC, N-acetylcysteine]
infarction versus control group ([2]; 400 mg/kg i.v. 30 min before occlusion, slices 10 and 12 mm from frontal pole, significant only in last slice): the infarction was smaller
infarcted area smaller than in control group (mean) ([2]; 400 mg/kg i.v. over 15 min starting 30 min before occlusion, slices 6 and 8 mm from frontal pole, 24 h after 60 min MCAO): 38%
serum NAC concentration ([3]; 400 mg/kg): about 1.5 mM
serum NAC concentration ([3]; 1000 mg/kg): ~10 mM
serum NAC concentration ([3]; about 140 mg/kg): 0.1 to 0.3 mM
effectiveness in preventing or treating ischemia-reperfusion injuries [4]: more effective
hematocrit after infusion (from 50%) ([1]; 2500 μl volume intravenous injection in 5 minutes, same for saline): 30%
infarction volume ([1]; Series A: 400 mg/kg i.v. -60 min to MCAO): 143.40 ± 72 mm3
average reduction of total calculated infarction volume versus saline treated group ([1]; Series A: NAC 60 minutes before occlusion): 43%
infarction volume ([1]; Series B: 400 mg/kg i.v. -30 min to MCAO): 176.60 ± 69 mm3
average protection versus saline ([1]; Series B: NAC 30 minutes before occlusion): 34%
infarction volume ([1]; Series C: 400 mg/kg i.v. at reperfusion (2 min after)): 156.41 ± 27 mm3
total volume of infarction versus saline treated group ([1]; Series C: NAC after reperfusion, p=0.84): the difference was not significant
protection in comparison to saline controls ([1]; Series D: BSO treated, glutathione depleted animals, p=0.72): failed to provide significant protection
toxicity [5]: No toxicity was observed
transient decrease of mean arterial blood pressure (Long-Evans, rat, in vivo, iv): 10%
morbidity or mortality (stroke animals, intravenous 400 mg NAC in 5 min infusion): did not cause significant morbidity or mortality
